From patent publication US11208412B2 (DAEGU-GYEONGBUK MEDICAL INNOVATION FOUNDATION, priority 2017, dated 2021) come the findings set out here.

What all share (experiment): Kinase selectivity, DiscoverX scanMAX Kinase assay panel (% control)
What all share (assay type): binding

The target in experiment [1] is T1, kinases of the scanMAX Kinase assay panel (Homo sapiens, UniProt Q96J92).
T1 construct: purchased DiscoverX Co. (contract measurement) scanMAX Kinase assay panel
To be noted: kinase WNK4; 1 uM in DMSO. The procedure, abridged:
(§1)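 Single-point screen, 1 uM cpd in DMSO. % ctrl = (cpd − pos ctrl)/(neg ctrl − pos ctrl)×100; pos ctrl = 0%, DMSO neg ctrl = 100%. Hit cutoff <35%.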

In experiment [2] the target is T2, kinases of the scanMAX Kinase assay panel (Homo sapiens, UniProt Q9NYL2).
T2 construct: purchased DiscoverX Co. (contract measurement) scanMAX Kinase assay panel
T2 sequence (Q9NYL2 whole entry): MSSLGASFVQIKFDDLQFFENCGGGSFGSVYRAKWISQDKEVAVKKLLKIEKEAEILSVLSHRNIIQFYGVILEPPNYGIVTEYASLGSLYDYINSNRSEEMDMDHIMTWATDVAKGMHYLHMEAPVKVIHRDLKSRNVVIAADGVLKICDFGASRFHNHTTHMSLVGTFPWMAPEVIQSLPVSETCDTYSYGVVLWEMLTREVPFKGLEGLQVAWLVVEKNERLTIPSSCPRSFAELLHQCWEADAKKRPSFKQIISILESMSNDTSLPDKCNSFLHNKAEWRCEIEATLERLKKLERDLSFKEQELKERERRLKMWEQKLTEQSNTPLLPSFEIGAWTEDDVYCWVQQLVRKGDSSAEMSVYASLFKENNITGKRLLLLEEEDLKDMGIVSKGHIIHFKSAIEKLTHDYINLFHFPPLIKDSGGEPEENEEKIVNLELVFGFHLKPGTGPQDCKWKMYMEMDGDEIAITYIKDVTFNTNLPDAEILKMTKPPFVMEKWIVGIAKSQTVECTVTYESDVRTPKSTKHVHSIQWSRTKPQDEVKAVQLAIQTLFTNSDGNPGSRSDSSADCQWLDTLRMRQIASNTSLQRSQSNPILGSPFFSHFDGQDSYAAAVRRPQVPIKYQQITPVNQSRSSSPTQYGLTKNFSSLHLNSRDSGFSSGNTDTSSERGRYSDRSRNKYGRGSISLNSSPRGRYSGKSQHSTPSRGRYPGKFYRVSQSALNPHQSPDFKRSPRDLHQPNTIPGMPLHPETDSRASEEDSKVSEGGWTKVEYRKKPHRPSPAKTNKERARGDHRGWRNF
The settings on record: kinase ZAK; 1 uM in DMSO. In a few lines: as §1

The target of experiment [3] is T3, kinases of the scanMAX Kinase assay panel (Homo sapiens, UniProt O43283).
T3 construct: purchased DiscoverX Co. (contract measurement) scanMAX Kinase assay panel
T3 sequence (O43283 1-966): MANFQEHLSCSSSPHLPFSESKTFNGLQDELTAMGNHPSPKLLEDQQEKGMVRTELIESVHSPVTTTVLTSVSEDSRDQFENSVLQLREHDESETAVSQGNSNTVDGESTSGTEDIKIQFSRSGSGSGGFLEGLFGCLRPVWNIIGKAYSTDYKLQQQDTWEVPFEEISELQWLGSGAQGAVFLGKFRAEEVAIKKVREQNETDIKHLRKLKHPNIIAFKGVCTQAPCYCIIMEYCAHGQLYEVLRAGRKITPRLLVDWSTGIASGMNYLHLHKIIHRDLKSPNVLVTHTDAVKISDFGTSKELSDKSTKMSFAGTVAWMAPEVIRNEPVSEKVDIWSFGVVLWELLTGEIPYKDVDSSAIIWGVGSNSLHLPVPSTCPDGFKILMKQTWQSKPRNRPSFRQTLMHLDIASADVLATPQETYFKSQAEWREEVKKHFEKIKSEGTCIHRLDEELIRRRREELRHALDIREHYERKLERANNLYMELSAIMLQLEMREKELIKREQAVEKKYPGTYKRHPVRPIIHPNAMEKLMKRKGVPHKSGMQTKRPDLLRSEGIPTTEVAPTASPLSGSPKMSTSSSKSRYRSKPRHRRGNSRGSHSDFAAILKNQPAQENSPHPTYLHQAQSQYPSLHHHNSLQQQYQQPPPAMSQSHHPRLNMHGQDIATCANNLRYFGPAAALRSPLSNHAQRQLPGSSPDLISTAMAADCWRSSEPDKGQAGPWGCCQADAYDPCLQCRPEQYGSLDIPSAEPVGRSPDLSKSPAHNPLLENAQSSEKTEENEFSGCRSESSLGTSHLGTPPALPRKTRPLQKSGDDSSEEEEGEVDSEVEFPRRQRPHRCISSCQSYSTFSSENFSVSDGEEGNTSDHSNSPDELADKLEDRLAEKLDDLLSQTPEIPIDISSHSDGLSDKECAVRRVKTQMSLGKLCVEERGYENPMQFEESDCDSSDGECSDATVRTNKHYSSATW
The settings on record: LZK; 1 uM. The procedure, abridged: as §1

Experiment [4] has as its target T4, kinases of the scanMAX Kinase assay panel (Homo sapiens, UniProt P51617).
T4 construct: purchased DiscoverX Co. (contract measurement) scanMAX Kinase assay panel
To be noted: IRAK1; 1 uM. In a few lines:
as §1

For experiment [5], the target named is T5, kinases of the scanMAX Kinase assay panel (Homo sapiens, UniProt P08631).
T5 construct: purchased DiscoverX Co. (contract measurement) scanMAX Kinase assay panel
T5 sequence (P08631 whole entry): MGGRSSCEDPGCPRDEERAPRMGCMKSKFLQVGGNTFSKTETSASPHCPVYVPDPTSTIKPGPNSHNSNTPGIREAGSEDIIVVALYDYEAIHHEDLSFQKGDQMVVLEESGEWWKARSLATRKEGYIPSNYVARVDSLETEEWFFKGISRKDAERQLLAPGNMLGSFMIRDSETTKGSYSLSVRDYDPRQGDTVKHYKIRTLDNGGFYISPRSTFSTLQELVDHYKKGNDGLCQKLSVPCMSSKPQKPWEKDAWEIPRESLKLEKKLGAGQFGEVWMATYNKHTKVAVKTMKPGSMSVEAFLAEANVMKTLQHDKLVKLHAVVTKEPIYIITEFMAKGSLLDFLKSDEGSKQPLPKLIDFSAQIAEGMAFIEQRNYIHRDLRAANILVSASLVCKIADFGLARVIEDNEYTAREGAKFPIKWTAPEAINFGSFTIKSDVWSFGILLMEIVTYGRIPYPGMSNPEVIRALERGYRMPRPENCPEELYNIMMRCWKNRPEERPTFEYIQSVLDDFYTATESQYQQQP
The settings on record: HCK; 1 uM. The procedure, abridged: as §1

The target of experiment [6] is T6, kinases of the scanMAX Kinase assay panel (Homo sapiens, UniProt P00519, M351T).
T6 construct: purchased DiscoverX Co. (contract measurement) scanMAX Kinase assay panel
To be noted: ABL1(M351T)-phosphorylated; 1 uM. In a few lines: as §1

Experiment [7] addresses T7, kinases of the scanMAX Kinase assay panel (Homo sapiens, UniProt Q9C098).
T7 construct: purchased DiscoverX Co. (contract measurement) scanMAX Kinase assay panel
The settings on record: DCAMKL3; 1 uM. In a few lines: as §1

Experiment [8] has as its target T8, kinases of the scanMAX Kinase assay panel (Homo sapiens, UniProt P00533, G719S).
T8 construct: purchased DiscoverX Co. (contract measurement) scanMAX Kinase assay panel
To be noted: EGFR(G719S); 1 uM. In a few lines:
as §1

For experiment [9], the target named is T9, kinases of the scanMAX Kinase assay panel (Homo sapiens, UniProt Q92630).
T9 construct: purchased DiscoverX Co. (contract measurement) scanMAX Kinase assay panel
T9 sequence (Q92630 1-601): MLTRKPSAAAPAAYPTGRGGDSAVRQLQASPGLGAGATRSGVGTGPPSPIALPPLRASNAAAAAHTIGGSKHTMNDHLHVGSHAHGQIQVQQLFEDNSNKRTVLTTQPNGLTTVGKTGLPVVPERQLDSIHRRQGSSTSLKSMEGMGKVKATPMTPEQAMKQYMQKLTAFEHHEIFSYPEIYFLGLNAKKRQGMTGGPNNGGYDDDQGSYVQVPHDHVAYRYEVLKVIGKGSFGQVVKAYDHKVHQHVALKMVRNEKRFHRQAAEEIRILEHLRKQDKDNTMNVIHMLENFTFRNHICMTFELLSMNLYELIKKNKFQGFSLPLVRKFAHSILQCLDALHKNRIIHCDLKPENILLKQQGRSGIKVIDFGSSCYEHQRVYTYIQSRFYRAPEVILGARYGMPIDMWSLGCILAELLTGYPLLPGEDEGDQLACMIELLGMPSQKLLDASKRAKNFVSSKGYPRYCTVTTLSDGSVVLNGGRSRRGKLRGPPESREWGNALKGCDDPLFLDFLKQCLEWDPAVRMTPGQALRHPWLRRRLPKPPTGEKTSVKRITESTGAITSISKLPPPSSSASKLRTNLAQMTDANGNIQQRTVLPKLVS
To be noted: DYRK2; 1 uM. The procedure, abridged:
as §1

In experiment [10] the target is T10, kinases of the scanMAX Kinase assay panel (Homo sapiens, UniProt P42336, E542K).
T10 construct: purchased DiscoverX Co. (contract measurement) scanMAX Kinase assay panel
T10 sequence (P42336 whole entry E542K): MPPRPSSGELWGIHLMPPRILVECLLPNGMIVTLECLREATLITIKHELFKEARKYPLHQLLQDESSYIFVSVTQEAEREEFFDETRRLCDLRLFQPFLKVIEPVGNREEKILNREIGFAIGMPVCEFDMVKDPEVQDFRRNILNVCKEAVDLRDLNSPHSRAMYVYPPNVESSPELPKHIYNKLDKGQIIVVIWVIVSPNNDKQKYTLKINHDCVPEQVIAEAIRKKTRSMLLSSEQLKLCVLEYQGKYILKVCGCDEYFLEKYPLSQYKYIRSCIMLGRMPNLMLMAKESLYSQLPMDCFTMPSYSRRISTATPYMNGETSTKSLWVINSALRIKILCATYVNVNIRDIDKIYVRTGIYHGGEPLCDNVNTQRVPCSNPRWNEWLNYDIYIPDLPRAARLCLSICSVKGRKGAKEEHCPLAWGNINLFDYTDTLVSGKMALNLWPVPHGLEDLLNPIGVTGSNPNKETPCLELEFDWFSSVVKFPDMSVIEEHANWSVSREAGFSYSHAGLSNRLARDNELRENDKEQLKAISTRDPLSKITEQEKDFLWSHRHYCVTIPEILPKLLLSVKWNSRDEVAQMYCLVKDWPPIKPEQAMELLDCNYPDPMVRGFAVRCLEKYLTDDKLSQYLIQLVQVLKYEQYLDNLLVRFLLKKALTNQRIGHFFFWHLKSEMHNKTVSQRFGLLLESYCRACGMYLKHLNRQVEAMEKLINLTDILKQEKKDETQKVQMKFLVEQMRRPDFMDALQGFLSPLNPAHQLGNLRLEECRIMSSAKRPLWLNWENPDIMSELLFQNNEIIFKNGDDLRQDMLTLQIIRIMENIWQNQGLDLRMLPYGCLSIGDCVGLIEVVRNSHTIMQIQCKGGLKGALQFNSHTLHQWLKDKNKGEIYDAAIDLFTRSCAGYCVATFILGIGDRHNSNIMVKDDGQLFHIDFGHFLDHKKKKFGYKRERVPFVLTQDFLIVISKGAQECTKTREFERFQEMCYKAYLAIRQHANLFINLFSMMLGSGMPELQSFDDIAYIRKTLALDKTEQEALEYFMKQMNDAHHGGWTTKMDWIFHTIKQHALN
To be noted: PIK3CA(E542K); 1 uM. In a few lines: as §1

T8 sequence (P00533 25-1210 G719S): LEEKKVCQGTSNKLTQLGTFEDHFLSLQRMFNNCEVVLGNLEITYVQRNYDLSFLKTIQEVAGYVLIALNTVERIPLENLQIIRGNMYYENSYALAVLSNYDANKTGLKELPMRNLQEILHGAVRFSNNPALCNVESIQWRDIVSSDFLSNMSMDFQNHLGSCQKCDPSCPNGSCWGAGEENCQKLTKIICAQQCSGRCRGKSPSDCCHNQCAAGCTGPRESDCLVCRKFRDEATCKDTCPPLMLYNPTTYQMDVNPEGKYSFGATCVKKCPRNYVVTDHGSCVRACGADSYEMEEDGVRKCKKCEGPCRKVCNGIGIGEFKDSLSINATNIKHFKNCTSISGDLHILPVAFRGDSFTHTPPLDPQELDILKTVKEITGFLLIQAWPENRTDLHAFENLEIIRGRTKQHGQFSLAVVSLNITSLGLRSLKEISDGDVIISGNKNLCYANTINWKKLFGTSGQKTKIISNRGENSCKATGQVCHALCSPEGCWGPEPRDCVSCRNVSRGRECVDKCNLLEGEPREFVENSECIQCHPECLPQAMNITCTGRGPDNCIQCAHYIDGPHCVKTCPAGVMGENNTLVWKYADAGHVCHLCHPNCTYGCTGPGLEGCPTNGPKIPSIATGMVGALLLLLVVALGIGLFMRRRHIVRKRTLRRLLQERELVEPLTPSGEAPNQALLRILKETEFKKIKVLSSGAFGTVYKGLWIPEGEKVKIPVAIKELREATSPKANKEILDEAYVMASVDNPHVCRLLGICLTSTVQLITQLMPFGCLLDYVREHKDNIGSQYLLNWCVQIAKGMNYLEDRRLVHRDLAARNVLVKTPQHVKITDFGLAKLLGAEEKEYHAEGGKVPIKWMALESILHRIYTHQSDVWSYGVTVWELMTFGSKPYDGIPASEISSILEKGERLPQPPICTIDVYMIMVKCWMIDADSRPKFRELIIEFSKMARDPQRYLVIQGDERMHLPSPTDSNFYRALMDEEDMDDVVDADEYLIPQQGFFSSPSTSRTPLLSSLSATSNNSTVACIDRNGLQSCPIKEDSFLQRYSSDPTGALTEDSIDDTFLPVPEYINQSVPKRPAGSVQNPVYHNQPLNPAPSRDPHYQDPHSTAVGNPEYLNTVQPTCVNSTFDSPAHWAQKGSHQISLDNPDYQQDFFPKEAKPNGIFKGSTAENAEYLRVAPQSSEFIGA
T4 sequence (P51617 whole entry): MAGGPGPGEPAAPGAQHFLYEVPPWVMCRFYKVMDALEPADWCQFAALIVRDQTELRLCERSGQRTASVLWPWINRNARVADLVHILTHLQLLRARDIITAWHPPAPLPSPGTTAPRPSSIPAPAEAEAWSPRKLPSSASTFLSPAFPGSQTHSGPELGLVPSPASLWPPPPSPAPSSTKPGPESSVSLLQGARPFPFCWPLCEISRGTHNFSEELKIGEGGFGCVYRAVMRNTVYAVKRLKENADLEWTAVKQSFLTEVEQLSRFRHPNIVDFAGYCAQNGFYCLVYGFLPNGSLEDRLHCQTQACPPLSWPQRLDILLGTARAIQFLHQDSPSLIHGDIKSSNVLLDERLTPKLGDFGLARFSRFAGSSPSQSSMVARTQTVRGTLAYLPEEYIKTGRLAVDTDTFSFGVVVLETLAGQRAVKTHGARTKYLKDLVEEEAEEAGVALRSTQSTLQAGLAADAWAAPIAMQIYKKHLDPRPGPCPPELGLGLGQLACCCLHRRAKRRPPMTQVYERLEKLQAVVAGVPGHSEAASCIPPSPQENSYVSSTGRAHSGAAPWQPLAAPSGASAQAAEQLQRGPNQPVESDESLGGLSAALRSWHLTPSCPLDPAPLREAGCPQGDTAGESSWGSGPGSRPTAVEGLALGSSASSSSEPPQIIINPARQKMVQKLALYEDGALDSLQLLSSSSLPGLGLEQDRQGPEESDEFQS
T7 sequence (Q9C098 whole entry): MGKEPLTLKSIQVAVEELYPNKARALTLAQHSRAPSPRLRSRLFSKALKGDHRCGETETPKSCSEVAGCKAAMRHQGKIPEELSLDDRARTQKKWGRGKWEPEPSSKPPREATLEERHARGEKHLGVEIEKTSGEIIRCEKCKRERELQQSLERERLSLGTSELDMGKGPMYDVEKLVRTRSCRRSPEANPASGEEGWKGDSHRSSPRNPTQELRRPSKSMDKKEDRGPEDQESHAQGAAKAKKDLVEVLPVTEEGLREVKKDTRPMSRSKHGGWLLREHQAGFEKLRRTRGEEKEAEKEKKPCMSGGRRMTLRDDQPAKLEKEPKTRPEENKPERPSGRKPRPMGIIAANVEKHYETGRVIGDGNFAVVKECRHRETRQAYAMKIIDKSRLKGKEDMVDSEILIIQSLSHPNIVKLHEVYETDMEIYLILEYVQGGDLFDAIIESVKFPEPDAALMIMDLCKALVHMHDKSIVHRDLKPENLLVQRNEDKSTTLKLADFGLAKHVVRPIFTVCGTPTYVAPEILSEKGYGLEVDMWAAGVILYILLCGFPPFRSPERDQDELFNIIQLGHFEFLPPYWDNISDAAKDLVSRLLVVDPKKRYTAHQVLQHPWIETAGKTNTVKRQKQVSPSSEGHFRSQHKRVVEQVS

With `CNc1nc(Nc2ccc(C(=O)N3CCOCC3)cc2OC)nc2[nH]cc(C#N)c12` [Example 1, 2-((2-methoxy-4-(morpholine-4-carbonyl)phenyl)amino)-4-(methylamino)-7H-pyrrolo[2,3-d]pyrimidine-5-carbonitrile], the remaining binding at 1 µM in experiment [1] stood at 81%; in experiment [2] it was 100%; in experiment [3], 81%; in [4], 75%; in experiment [5] it was 95%; in experiment [6], 62%. Also, the remaining binding at 1 µM in experiment [7] is 98%; in experiment [8], 82%; in experiment [9] it was 22%; in experiment [10], 74%.

Regarding `CC1(Nc2nc(Nc3cnn([C@H]4CCN(C5COC5)C[C@@H]4F)c3Cl)nc3[nH]cc(C#N)c23)CC1` [Example 52, 2-((5-chloro-1-((3S,4S)-3-fluoro-1-(oxetane-3-yl)piperidine-4-yl)-1H-pyrazole-4-yl)amino)((1-methylcyclopropyl)amino)-7H-pyrrolo[2,3-d]pyrimidine-5-carbonitrile], the remaining binding at 1 µM amounted to 100% in [1]; 88% in experiment [2]; 16% in [3]; 1.4% in experiment [4]; 11% in experiment [5]; 2.6% in [6]. Also, the remaining binding at 1 µM turned out to be 91% in experiment [7], 57% in experiment [8], 0.8% in experiment [9] and 77% in experiment [10].

Turning to `CCNc1nc(Nc2ccc(C(=O)N3CCC(N4CCOCC4)CC3)cc2OC)nc2[nH]cc(C(F)(F)F)c12` [Example 104, (4-((4-(ethylamino)-5-(trifluoromethyl)-7H-pyrrolo[2,3-d]pyrimidine-2-yl)amino)-3-methoxyphenyl)(4-morpholinopiperidine-1-yl)methanone], the remaining binding at 1 µM in [1], in [2], in experiment [3], in experiment [4], in [5] and in [6] was 100% throughout. For the same compound, the remaining binding at 1 µM in experiment [7] turned out to be 90%; in experiment [8] it was 100%; in experiment [9], 25%; in [10] it was 83%.
